Laboratory results from article PMC11219871, “Epigenetic-based differentiation therapy for Acute Myeloid Leukemia” (Nature Communications, 2024).

How the values were obtained:
Assay in all cases: Epigenetic panel (BPS Bioscience)
Assay type in all cases: biochemical
PRMT3 = biological target: T1, PRMT3 (Homo sapiens, UniProt O60678)
T1 construct: purchased BPS Bioscience; Eurofins (HDAC4, 5, 7-11)
Description: (§1) The selectivity of CM-444 and CM-1758 against other epigenetic targets, including histone demethylase (JMJD2A, JMJD2B, JMJD2C, JMJD2D, JMJD2E, JMJD3, JMJD1A, LSD1, Jarid1A, Jarid1B, Jarid1C, FBXL10, FBXL11, JHDM1D, JMJD1B, PHF8, LSD2 and UTX); histone acetyltransferases (GCN5, P300); histone methyltransferases (G9a, GLP, MLL1, SET7/9, SUV39H1, SUV39H2, PRMT1, PRMT3, PRMT4, PRMT5, PRMT6, PRMT8, PRMT9, NSD1, NSD2, EZH1, EZH2, SETDB1, SETD2, SET8, SUV4-20H1, SMYD2, SMYD3, DOT1L, EZH2 (A677G), EZH2 (A677G), EZH2 (A738T), EZH2 (Y641S), EZH2 (P132S), EZH2 (Y641C), EZH2 (Y641F), EZH2 (Y641H), EZH2 (Y641N)); bromodomains (ATAD2B, ATAD2A, BRD1, BRD9, BPTF/FALZ, CeCR2, BRPF3, BRD3 (BD1 + BD2), BAZ2B, WDR9, TAF1 (BD2), TAF1L (BD2), TAF1L (BD1 + BD2), BRD2 (BD1), BRD2 (BD2), BRD2 (BD1 + BD2), BRD3 (BD1), BRD3 (BD2), BRD4 (BD1), BRD4 (BD2), BRD4 (BD1 + BD2), BRDT (BD1), BRDT (BD1 + BD2), CREBBP, SMARCA2A, SMARCA4/BRG1); DNA methyltranferases (DNMT1, DNMT3A/3L and DNMT3B/3L), and sirtuin histone deacetylases (SIRT1, SIRT2, SIRT3, SIRT5 and SIRT6), were determined by BPS Bioscience (http://www.bpsbioscience.com/index.ph). Binding experiments were performed in duplicate at a concentration of 10 μM.

SIRT3 = biological target: T2, SIRT3 (Homo sapiens, UniProt Q9NTG7)
T2 construct: purchased BPS Bioscience; Eurofins (HDAC4, 5, 7-11)
T2 sequence (Q9NTG7 whole entry): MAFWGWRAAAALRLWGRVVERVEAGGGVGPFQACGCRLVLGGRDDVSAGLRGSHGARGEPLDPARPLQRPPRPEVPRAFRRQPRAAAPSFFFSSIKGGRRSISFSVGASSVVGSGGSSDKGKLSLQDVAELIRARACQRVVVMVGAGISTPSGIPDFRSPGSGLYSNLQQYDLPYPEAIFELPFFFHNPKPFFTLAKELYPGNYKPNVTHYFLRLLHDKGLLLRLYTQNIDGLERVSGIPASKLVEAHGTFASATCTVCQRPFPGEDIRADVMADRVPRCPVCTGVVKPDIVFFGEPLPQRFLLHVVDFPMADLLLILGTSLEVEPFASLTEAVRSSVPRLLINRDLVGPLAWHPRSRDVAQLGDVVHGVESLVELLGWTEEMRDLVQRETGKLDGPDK
Description: as §1

SUV4-20H1 = biological target: T3, SUV4-20H1 (Homo sapiens, UniProt Q4FZB7)
T3 construct: purchased BPS Bioscience; Eurofins (HDAC4, 5, 7-11)
Description: as §1

SMYD3 = biological target: T4, SMYD3 (Homo sapiens, UniProt Q9H7B4)
T4 construct: purchased BPS Bioscience; Eurofins (HDAC4, 5, 7-11)
Description: as §1

EZH2 (P132S) = biological target: T5, EZH2 (P132S) (Homo sapiens, UniProt Q15910, P132S)
T5 construct: purchased BPS Bioscience; Eurofins (HDAC4, 5, 7-11)
Description: as §1

SIRT1 = biological target: T6, SIRT1 (Homo sapiens, UniProt Q96EB6)
T6 construct: purchased BPS Bioscience; Eurofins (HDAC4, 5, 7-11)
Description: as §1

LSD1 = biological target: T7, LSD1 (Homo sapiens, UniProt O60341)
T7 construct: purchased BPS Bioscience; Eurofins (HDAC4, 5, 7-11)
Description: as §1

JMJD2E = biological target: T8, JMJD2E (Homo sapiens, UniProt B2RXH2)
T8 construct: purchased BPS Bioscience; Eurofins (HDAC4, 5, 7-11)
Description: as §1

FBXL10 = biological target: T9, FBXL10 (Homo sapiens, UniProt Q8NHM5)
T9 construct: purchased BPS Bioscience (contracted assay service)
T9 sequence (Q8NHM5 1-1336): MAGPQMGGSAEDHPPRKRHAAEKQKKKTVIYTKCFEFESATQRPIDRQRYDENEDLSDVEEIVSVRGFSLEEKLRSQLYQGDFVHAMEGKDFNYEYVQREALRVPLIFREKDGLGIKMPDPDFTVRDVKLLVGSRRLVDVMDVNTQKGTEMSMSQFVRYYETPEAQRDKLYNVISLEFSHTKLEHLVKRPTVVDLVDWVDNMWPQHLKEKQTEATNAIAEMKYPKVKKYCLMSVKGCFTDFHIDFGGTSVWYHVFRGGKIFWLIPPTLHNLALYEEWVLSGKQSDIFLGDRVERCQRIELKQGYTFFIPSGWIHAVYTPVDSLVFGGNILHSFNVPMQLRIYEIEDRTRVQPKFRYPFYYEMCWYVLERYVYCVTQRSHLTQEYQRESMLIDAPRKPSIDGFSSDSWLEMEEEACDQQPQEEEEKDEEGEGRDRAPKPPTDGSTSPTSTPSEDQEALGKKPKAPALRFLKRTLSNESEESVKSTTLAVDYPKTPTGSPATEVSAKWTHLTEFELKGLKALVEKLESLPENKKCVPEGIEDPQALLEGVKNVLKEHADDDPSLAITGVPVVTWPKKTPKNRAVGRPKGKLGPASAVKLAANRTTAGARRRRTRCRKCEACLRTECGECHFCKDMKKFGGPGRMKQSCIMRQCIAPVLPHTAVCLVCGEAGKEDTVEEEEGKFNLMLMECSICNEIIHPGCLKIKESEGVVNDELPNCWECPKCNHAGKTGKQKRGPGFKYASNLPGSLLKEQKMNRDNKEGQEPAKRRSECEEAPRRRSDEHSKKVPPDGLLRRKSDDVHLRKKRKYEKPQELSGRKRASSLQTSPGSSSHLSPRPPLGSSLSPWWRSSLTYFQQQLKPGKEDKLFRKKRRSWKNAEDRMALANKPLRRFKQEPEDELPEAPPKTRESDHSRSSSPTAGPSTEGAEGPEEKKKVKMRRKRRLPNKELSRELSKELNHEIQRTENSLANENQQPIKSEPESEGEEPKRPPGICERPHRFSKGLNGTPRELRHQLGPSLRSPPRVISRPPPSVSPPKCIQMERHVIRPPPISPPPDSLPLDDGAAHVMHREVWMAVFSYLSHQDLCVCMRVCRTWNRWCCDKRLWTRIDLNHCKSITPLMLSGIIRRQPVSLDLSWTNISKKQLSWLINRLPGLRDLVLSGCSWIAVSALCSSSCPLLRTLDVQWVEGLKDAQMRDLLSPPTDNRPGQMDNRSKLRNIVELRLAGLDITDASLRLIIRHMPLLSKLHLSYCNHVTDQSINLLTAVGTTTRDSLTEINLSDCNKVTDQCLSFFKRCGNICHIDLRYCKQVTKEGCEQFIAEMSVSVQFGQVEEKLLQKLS
Description: as §1

Jarid1A = biological target: T10, Jarid1A (Homo sapiens, UniProt P29375)
T10 construct: purchased BPS Bioscience; Eurofins (HDAC4, 5, 7-11)
T10 sequence (P29375 whole entry): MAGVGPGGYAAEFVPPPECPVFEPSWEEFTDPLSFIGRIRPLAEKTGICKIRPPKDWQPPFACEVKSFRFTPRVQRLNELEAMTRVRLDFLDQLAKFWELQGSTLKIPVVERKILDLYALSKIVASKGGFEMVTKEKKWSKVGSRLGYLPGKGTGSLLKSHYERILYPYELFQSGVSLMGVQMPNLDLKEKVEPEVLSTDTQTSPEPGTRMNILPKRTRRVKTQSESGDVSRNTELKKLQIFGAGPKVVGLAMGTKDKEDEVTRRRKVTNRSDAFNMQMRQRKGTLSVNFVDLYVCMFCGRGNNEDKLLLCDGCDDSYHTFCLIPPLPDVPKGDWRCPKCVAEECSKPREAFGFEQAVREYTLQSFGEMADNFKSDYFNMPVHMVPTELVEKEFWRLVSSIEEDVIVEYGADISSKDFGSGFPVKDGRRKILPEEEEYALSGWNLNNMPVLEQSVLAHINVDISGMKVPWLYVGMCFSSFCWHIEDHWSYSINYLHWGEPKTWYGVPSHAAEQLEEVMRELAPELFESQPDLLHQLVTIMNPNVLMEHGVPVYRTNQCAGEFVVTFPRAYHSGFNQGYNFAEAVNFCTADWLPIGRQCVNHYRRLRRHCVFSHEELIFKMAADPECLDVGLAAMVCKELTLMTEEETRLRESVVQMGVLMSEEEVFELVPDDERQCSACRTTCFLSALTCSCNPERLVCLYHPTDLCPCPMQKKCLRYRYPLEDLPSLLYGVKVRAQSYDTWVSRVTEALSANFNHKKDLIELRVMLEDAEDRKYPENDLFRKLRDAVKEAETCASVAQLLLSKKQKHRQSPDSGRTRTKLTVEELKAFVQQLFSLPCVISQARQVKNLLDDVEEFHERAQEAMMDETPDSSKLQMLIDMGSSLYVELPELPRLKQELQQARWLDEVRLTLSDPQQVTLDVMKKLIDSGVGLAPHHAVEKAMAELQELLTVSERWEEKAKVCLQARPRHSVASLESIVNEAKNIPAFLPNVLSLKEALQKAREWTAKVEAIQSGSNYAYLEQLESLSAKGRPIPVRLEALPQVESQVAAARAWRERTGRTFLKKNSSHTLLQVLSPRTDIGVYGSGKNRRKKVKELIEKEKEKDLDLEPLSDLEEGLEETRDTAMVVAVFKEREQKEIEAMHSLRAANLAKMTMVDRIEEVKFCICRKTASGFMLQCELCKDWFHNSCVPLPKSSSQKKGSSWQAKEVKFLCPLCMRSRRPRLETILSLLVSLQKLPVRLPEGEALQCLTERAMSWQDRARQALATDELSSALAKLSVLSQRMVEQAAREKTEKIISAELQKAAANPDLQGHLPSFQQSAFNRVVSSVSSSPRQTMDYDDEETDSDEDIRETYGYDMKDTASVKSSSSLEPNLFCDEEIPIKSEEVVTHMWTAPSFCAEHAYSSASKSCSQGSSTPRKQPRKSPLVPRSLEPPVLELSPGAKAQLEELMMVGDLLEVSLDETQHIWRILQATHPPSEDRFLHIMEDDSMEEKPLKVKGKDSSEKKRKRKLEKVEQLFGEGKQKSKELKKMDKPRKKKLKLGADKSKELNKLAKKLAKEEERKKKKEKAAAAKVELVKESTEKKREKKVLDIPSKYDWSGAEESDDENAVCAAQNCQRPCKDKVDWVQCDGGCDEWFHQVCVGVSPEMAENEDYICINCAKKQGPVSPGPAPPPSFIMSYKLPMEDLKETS
Description: as §1

NSD1 = biological target: T11, NSD1 (Homo sapiens, UniProt Q96L73)
T11 construct: purchased BPS Bioscience; Eurofins (HDAC4, 5, 7-11)
T11 sequence (Q96L73 whole entry): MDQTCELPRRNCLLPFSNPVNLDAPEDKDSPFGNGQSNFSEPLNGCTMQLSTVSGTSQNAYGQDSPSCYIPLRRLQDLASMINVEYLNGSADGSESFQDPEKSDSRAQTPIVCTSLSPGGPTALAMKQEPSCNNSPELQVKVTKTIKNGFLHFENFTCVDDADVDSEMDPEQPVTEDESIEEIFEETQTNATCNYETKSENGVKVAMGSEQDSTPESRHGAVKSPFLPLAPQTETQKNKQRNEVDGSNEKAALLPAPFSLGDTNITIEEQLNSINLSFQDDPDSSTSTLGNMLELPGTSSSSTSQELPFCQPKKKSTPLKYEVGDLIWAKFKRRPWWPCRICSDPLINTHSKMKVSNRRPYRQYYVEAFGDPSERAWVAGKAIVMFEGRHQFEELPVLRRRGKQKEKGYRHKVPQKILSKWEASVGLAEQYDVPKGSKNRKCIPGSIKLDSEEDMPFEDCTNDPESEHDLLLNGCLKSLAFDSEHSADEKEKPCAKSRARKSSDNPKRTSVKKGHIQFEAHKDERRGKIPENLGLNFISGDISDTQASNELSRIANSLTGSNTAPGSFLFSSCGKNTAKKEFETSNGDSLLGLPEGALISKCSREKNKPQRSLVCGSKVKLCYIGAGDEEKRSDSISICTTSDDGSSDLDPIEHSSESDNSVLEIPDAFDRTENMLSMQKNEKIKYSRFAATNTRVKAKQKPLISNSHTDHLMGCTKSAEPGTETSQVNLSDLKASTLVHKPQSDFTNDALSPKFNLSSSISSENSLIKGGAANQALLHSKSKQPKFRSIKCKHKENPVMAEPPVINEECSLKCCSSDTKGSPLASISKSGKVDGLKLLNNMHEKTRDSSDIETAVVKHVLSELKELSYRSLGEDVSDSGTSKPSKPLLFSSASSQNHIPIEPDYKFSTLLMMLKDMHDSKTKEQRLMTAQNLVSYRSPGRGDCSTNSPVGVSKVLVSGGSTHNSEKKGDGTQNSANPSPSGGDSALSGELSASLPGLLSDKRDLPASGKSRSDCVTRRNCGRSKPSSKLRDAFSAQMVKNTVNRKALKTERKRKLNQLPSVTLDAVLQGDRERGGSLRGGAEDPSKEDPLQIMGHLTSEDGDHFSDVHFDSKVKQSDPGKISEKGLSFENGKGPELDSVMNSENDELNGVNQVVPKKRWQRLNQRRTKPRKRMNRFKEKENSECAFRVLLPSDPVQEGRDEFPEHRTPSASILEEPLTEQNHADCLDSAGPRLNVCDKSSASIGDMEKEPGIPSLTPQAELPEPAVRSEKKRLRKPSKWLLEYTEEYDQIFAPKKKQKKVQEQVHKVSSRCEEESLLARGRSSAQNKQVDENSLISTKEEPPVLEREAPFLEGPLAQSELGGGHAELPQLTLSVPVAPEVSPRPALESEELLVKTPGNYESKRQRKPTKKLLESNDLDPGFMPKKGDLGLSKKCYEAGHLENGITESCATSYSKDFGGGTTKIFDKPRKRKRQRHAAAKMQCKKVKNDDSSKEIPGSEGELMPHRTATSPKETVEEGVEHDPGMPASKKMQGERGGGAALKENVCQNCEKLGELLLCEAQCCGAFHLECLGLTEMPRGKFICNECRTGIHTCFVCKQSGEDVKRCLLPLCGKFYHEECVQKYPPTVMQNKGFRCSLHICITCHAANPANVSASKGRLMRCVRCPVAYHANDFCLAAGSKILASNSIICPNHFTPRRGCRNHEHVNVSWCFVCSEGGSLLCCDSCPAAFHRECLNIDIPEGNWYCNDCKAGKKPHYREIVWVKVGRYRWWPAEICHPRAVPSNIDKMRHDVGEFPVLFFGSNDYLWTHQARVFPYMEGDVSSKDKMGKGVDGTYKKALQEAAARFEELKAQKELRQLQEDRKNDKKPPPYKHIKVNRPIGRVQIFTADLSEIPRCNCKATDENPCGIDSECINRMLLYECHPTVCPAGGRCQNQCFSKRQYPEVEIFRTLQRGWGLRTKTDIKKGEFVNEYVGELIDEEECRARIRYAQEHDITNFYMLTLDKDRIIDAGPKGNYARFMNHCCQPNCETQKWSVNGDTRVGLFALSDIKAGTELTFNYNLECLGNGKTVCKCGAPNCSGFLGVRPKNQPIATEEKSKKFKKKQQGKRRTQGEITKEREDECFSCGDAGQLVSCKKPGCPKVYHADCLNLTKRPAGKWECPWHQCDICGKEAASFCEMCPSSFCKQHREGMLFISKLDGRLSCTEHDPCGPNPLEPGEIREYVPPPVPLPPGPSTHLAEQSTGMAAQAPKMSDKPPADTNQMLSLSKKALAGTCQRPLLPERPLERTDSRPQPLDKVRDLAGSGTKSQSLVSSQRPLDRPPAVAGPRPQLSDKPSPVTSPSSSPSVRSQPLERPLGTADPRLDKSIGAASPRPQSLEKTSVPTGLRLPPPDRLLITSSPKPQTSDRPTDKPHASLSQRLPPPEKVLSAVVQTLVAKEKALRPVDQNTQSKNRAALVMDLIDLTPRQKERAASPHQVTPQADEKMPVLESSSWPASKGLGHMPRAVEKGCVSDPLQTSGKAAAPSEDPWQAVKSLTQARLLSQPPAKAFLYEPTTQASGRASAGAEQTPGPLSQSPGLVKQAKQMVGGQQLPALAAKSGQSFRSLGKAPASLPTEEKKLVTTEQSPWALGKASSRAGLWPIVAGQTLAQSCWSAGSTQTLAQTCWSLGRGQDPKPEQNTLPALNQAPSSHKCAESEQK
Description: as §1

GLP = biological target: T12, GLP (Homo sapiens, UniProt Q9H9B1)
T12 construct: purchased BPS Bioscience; Eurofins (HDAC4, 5, 7-11)
Description: as §1

SETDB1 = biological target: T13, SETDB1 (Homo sapiens, UniProt Q15047)
T13 construct: purchased BPS Bioscience; Eurofins (HDAC4, 5, 7-11)
Description: as §1

SMILES	inhibition at 10 µM (PRMT3) [%]	inhibition at 10 µM (SIRT3) [%]	inhibition at 10 µM (SUV4-20H1) [%]	inhibition at 10 µM (SMYD3) [%]	inhibition at 10 µM (EZH2 (P132S)) [%]	inhibition at 10 µM (SIRT1) [%]	inhibition at 10 µM (LSD1) [%]	inhibition at 10 µM (JMJD2E) [%]	inhibition at 10 µM (FBXL10) [%]	inhibition at 10 µM (Jarid1A) [%]	inhibition at 10 µM (NSD1) [%]	inhibition at 10 µM (GLP) [%]	inhibition at 10 µM (SETDB1) [%]	IC50 (FBXL10) [µM]
COc1cc2nc(-c3cc(C)oc3C)cc(NCC3CCN(c4ncc(C(=O)NO)cn4)CC3)c2cc1OC [CM-1758, 2-[4-[[[2-(2,5-dimethyl-3-furyl)-6,7-dimethoxy-4-quinolyl]amino]methyl] -1-piperidyl]pyrimidine-5-carbohydroxamic acid]	0	9	1	21	0	1	20	1	34	47	10	7	3	–
COc1cc2nc(-c3ccc(C)o3)cc(NCC3CCN(c4ncc(C(=O)NO)cn4)CC3)c2cc1OC [CM-444, 2-[4-[[[6,7-dimethoxy-2-(5-methyl-2-furyl)-4-quinolyl]amino]methyl]-1-piperidyl]pyrimidine-5-carbohydroxamic acid]	0	0	2	35	0	13	16	5	58	16	14	0	0	6.7
